ChEMBL document CHEMBL5260832, “Hepatoprotective natural triterpenoids” (Eur J Med Chem, 2018)
pIC50: −log10 of the molar value.

tested on: not listed separately; test: Hepatoprotective activity against D-Galactosamine-induced toxicity in rat WB-F344 cell assessed as cell damage at 10 uM by MTT colorimetric assay relative to control; type: functional; conditions: not given

| Structure (SMILES) | Activity [%] |
| --- | --- |
| CC(C)=CC[C@H](O)[C@@H](C)[C@H]1CC[C@@]2(C)C3=C(CC[C@]12C)[C@@]1(C)CC[C@H](O)C(C)(C)[C@@H]1CC3 | 56.3 |
| CC(C)=CC[C@@H](O)[C@@H](C)[C@H]1CC[C@@]2(C)C3=C(C(=O)C[C@]12C)[C@@]1(C)CC[C@H](O)C(C)(C)[C@@H]1CC3 | 81.2 |
| CC(C)=CCC[C@@H](C)[C@H]1CC[C@@]2(C)C3=C(CC[C@]12C)[C@@]1(C)CC[C@H](O)C(C)(C)[C@@H]1CC3 [LANOSTEROL] | 74.8 |
| CC(C)=CCC[C@@H](C(=O)O)[C@H]1CC[C@@]2(C)C3=C(CC[C@]12C)[C@@]1(C)CC[C@H](O)C(C)(C)[C@@H]1CC3 [TRAMETENOLIC ACID] | 75 |
| CC(C)=C(C)[C@H]1C[C@@H]([C@H]2CC[C@@]3(C)C4=C(CC[C@]23C)[C@@]2(C)CC[C@H](O)C(C)(C)[C@@H]2CC4)C(=O)O1 | 71.9 |

tested on: not listed separately; test: Hepatotoxicity in D-GaIN induced in Wistar rat model hepatocyte assessed as reduction in PLA2 level; type: toxicity, cell-based; conditions: not given

| Structure (SMILES) | pIC50 |
| --- | --- |
| CC1(C)[C@@H](O[C@@H]2O[C@H](C(=O)O)[C@@H](O)[C@H](O)[C@H]2O[C@@H]2O[C@H](C(=O)O)[C@@H](O)[C@H](O)[C@H]2O)CC[C@]2(C)[C@H]3C(=O)C=C4[C@@H]5C[C@]6(C)C[C@@H](OC6=O)[C@]5(C)CC[C@@]4(C)[C@]3(C)CC[C@@H]12 | 4.49 |

tested on: Hepatocyte; test: Hepatoprotective activity against D-GaIN/TNFalpha -induced cell death in mouse hepatocyte assessed as inhibition of cell death; type: functional, cell-based; design: Activity: concentration or dose not given beside the values; conditions: not given

| Structure (SMILES) | Activity [%] |
| --- | --- |
| C[C@@H]1C(=O)O[C@H]2[C@@H]1O[C@]13O[C@@]4(CC[C@]5(C)C(=O)[C@@](C)(O)[C@H]2[C@H]15)C[C@]12OC(=O)C[C@H]1OC(C)(C)[C@@H]2C[C@@H]1O[C@@]14C3=O | 37.6 |
| C[C@H]1C(=O)O[C@@H]2[C@H]1O[C@@]13O[C@]4(CC[C@@]5(C)C(=O)[C@@](C)(O)[C@]2(O)[C@@H]15)C[C@@]12OC(=O)C[C@@H]1OC(C)(C)[C@H]2C[C@@H](O)[C@@H]4C3=O | 37.6 |
| C[C@@H]1C(=O)[C@]2(C)CC[C@@]34C[C@@]56OC(=O)C[C@@H]5OC(C)(C)[C@H]6C[C@@H](O)[C@@H]3C(=O)[C@]3(O[C@@H]5[C@@H](OC(=O)[C@@H]5C)[C@H]1[C@@H]32)O4 | 37.6 |
| CC1=CC[C@H]([C@@H](C)[C@H]2CC[C@@]3(C)CCC[C@H]4C(C)(C)O[C@@H]5CC(=O)O[C@@]54CC(=O)[C@H](O)C[C@]23C)OC1=O | 37.6 |
| C[C@@H]1C(=O)O[C@H]2[C@@H]1O[C@]13O[C@@]4(CC[C@]5(C)C(=O)[C@](C)(O)[C@@]2(O)[C@H]15)C[C@]12OC(=O)C[C@H]1OC(C)(C)[C@@H]2C[C@@H]1O[C@@]14C3=O | 37.6 |

same assay, conditions: Mus musculus, Hepatocyte

| Structure (SMILES) | pIC50 |
| --- | --- |
| C=C(C)[C@@H]1CC[C@]2(C(=O)O)CC[C@]3(C)[C@H](CC[C@@H]4[C@@]5(C)C[C@@H](O)[C@H](O)[C@](C)(CO)[C@@H]5[C@H](O)C[C@]43C)[C@@H]12 | 4.29 |

tested on: Hepatocyte; test: Hepatoprotective activity against D-GaIN/TNFalpha induced cell death in mouse hepatocytes assessed as reduction in TNF alpha level; type: functional, cell-based; conditions: not given

| Structure (SMILES) | pIC50 |
| --- | --- |
| C=C(C)C(=O)CC[C@@H](C=O)[C@H]1CC[C@@]2(C)[C@@H]3CC[C@H]4[C@](C)(C(=O)OC)[C@@H](O)C[C@H](O)[C@@]45C[C@@]35CC[C@]12C | 4.05 |
| C=C(C)[C@@H](O)CC[C@@H](CO)[C@H]1CC[C@@]2(C)[C@@H]3CC[C@H]4[C@](C)(C(=O)OC)[C@@H](O)C[C@H](O)[C@@]45C[C@@]35CC[C@]12C [METHYL QUADRANGULARATE] | 3.47 |
| C=C(C)[C@H](O)CC[C@@H](C)[C@H]1CC[C@@]2(C)[C@@H]3CC[C@H]4[C@](C)(C(=O)O)[C@@H](O)C[C@H](O)[C@@]45C[C@@]35CC[C@]12C | 4.46 |
| COC(=O)[C@]1(C)[C@@H](O)C[C@H](O)[C@]23C[C@]24CC[C@]2(C)[C@@H]([C@H](C=O)C/C=C/C(C)(C)O)CC[C@@]2(C)[C@@H]4CC[C@@H]13 | 4.34 |
| CC(C)C(O)(CO)CC[C@@H](C)[C@H]1CC[C@@]2(C)[C@@H]3CC[C@H]4[C@H](C(=O)O)[C@@H](O)C[C@H](O)[C@@]45C[C@@]35CC[C@]12C (some centres not stated) | 4.17 |
